The source of these data is patent publication US20210038607A1, “OXADIAZOLYLTHIOPHENE DERIVATIVES USEFUL AS HISTONE DEACETYLASE INHIBITORS” (Karus Therapeutics Limited, priority 2018, published 2021).

A value given as a limit tells only on which side of the number the result lay.

The target of one assay is T1, Human HDAC9 (Homo sapiens, UniProt Q9UKV0).
T1 construct: amino acids 604-1066 with C-terminal His tag; His (C); host or cells: baculovirus expression system
Put plainly: HDAC9 biochemical assay, class IIa-specific substrate. Conditions: read-out: HDAC Isoform IC50 (nM) 9. In outline: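 HDAC9 residues 604-1066 (C-terminal His tag, baculovirus-expressed) at 0.06 ng/ul with 50 μM class IIa substrate Boc-Lys(trifluoroacetyl)-AMC in Tris-HCl pH 8.0 buffer with BSA and 1% DMSO. 30 min at room temperature, then developer added; fluorescence read at 360/460 nm Ex/Em.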

The target in a further assay is T2, Human HDAC1 (Homo sapiens, UniProt Q13547).
T2 construct: full length with C-terminal His-tag and C-terminal FLAG-tag; His (C); FLAG (C); host or cells: baculovirus expression system
T2 sequence (Q13547 whole entry): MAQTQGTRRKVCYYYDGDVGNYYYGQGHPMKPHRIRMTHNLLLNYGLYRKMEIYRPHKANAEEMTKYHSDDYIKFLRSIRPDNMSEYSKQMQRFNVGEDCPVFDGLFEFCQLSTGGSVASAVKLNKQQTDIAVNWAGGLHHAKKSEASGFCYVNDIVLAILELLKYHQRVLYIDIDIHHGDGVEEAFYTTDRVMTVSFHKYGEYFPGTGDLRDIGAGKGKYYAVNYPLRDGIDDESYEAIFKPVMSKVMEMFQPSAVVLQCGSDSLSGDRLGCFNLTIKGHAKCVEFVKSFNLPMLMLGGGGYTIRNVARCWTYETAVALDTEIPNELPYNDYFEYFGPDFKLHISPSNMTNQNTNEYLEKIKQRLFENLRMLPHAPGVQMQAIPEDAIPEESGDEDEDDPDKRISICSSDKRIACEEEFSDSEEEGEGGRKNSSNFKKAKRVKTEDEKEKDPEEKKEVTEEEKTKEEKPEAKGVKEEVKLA
Description: HDAC1 biochemical assay, AMC-labeled peptide substrate. Conditions: read-out: HDAC Isoform IC50 (nM) 1. In outline:
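Baculovirus-expressed full-length human HDAC1 with His and FLAG tags, 0.3 ng/ul, incubated 1 h at 30° C with compound and 50 μM RHKK(Ac)AMC in Tris pH 8.0 buffer with BSA and 1% DMSO. Developer then releases AMC from deacetylated substrate; fluorescence read at 360/460 nm.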

A further assay addresses T3, Recombinant human HDAC6 (Homo sapiens, UniProt Q9UBN7).
T3 construct: full length, MW=159 kDa; GST (N); host or cells: Sf9 insect cells (baculovirus)
T3 sequence (Q9UBN7 1-1215): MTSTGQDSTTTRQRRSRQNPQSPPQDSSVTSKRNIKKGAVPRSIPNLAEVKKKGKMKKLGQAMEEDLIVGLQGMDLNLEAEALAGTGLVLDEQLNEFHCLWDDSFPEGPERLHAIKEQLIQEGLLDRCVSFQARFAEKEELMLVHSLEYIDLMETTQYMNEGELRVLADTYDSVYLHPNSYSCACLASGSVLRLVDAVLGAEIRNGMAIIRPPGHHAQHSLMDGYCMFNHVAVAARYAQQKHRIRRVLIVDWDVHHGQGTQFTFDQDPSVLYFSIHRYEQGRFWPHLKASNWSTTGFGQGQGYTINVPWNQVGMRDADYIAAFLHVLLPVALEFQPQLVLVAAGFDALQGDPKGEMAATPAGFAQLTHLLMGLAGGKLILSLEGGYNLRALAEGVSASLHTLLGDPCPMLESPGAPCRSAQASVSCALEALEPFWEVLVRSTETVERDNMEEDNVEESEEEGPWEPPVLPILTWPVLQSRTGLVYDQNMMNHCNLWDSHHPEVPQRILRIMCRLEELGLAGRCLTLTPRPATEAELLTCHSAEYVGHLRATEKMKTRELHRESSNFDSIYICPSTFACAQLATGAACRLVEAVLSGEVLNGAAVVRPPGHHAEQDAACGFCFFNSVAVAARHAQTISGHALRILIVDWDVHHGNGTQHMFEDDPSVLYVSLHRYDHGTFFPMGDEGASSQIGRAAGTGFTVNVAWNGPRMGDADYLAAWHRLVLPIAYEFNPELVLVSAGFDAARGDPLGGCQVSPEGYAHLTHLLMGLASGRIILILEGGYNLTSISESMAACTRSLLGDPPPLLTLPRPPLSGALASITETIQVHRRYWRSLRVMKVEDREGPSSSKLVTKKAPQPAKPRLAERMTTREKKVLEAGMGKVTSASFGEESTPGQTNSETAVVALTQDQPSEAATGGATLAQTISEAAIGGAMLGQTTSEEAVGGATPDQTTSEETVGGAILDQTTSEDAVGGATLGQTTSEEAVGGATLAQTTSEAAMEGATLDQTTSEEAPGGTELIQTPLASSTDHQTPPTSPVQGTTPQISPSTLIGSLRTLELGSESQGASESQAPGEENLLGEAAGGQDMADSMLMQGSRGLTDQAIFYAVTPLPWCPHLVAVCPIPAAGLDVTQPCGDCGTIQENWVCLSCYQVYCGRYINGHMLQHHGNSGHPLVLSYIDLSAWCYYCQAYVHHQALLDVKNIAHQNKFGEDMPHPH
Description: HDAC6 biochemical assay, AMC-labeled peptide substrate. Conditions: HDAC6; read-out: HDAC Isoform IC50 (nM) 6. The method, boiled down:
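Two-step fluorogenic read-out: enzyme deacetylates 50 μM RHKK(Ac)AMC for 1 h at 30° C in pH 8.0 Tris buffer with BSA and 1% DMSO, then developer cleavage gives signal at Ex 360/Em 460. Enzyme: 0.3 ng/ul recombinant full-length human HDAC6, GST-tagged, Sf9-expressed.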

The target of the next assay is T4, Human HDAC5 (Homo sapiens, UniProt Q9UQL6).
T4 construct: full length with C-terminal His tag, MW=51.1 kDa; His (C); host or cells: baculovirus expression system
T4 sequence (Q9UQL6 656-1122 limits assumed): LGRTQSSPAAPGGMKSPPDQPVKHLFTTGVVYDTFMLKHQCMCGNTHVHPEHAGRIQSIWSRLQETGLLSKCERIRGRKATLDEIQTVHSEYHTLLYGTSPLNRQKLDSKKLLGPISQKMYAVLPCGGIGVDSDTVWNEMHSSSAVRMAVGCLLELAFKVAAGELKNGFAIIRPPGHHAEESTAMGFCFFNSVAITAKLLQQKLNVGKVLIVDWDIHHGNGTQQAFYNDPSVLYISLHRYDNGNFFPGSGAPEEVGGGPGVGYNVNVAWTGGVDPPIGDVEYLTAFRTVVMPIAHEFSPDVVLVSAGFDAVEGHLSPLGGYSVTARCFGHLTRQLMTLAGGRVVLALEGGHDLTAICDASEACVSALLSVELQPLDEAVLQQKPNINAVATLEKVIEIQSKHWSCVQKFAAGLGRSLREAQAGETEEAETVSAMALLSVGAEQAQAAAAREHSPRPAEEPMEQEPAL
Description: HDAC5 biochemical assay, class IIa-specific substrate. Conditions: read-out: HDAC Isoform IC50 (nM) 5. In outline:
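Full-length C-terminal His-tagged HDAC5 from baculovirus (0.05 ng/ul) incubated 30 min at room temperature with 50 μM Boc-Lys(trifluoroacetyl)-AMC and compound, Tris pH 8.0 buffer with BSA, 1% DMSO. Developer then releases AMC; fluorescence 360/460 nm.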

The target in the next assay is T5, Human HDAC4 (Homo sapiens, UniProt P56524).
T5 construct: amino acids 627-1085 with N-terminal GST tag; GST (N); host or cells: baculovirus expression system
T5 sequence (P56524 627-1084 limits assumed): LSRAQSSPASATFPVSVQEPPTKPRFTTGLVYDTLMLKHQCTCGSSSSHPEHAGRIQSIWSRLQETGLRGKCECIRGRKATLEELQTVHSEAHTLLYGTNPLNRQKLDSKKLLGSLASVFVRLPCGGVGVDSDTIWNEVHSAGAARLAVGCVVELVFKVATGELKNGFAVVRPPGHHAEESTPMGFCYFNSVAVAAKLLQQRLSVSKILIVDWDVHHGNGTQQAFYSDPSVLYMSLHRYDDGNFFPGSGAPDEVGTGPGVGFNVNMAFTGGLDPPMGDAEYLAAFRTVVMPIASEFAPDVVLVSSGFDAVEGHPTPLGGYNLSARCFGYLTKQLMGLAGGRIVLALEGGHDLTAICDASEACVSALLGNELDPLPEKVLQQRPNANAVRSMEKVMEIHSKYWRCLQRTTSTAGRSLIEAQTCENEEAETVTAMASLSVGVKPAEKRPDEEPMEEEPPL
Put plainly: HDAC4 biochemical assay, class IIa-specific substrate. The note with it: read-out: HDAC Isoform IC50 (nM) 4. The method, boiled down: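 GST-tagged human HDAC4 (aa 627-1085, baculovirus) at 0.004 ng/ul was incubated 30 min at room temperature with 50 μM class IIa-specific substrate BOC-Lys(trifluoroacetyl)-AMC in Tris-HCl pH 8.0 buffer with BSA, 1% DMSO. Developer then released AMC, read at 360/460 nm.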

In a further assay the target is T6, Human HDAC7 (Homo sapiens, UniProt Q8WUI4).
T6 construct: (a.a. 518-end) with N-terminal GST tag; GST (N); host or cells: baculovirus expression system
T6 sequence (Q8WUI4 518-952 limits assumed): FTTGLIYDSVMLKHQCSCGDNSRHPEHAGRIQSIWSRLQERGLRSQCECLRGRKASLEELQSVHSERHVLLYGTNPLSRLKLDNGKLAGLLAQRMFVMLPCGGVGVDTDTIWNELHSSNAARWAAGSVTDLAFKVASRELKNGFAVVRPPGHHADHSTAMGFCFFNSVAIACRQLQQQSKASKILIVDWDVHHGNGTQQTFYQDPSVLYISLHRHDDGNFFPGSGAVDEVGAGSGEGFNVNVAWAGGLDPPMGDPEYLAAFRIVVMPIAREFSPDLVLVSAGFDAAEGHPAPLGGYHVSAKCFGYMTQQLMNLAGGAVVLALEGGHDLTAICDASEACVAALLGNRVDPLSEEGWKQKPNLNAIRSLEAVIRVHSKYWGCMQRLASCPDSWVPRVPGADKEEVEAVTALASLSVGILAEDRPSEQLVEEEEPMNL
Put plainly: HDAC7 biochemical assay, class IIa-specific substrate. Conditions: read-out: HDAC Isoform IC50 (nM) 7. The method, boiled down: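 GST-tagged HDAC7 (a.a. 518-end, baculovirus-expressed) at 0.001 ng/ul with 50 μM Boc-Lys(trifluoroacetyl)-AMC substrate, 30 min at room temperature in pH 8.0 Tris buffer with BSA, 1% DMSO final. Developer then releases AMC; fluorescence read at 360/460 nm.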

T1 sequence (Q9UKV0 604-1066 isoform Q9UKV0-5): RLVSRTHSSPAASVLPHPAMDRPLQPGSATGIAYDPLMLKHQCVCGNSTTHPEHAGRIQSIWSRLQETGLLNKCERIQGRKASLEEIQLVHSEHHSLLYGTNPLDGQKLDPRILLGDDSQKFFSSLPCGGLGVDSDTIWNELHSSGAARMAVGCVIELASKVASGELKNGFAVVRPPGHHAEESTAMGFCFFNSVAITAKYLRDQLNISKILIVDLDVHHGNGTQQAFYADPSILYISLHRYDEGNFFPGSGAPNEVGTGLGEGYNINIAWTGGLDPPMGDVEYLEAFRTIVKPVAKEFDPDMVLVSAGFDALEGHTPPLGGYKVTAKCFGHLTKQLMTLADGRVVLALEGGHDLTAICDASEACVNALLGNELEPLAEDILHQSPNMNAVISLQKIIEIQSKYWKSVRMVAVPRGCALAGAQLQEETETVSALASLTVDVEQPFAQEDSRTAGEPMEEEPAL

Regarding `Cc1cc(N(Cc2ccc(-c3noc(C(F)(F)F)n3)s2)c2cnccn2)ncn1` [Example CG, 6-Methyl-N-(pyrazin-2-yl)-N-({5-[5-(trifluoromethyl)-1,2,4-oxadiazol-3-yl]thiophen-2-yl}methyl)pyrimidin-4-amine], the IC50 is no more than 10000 nM on Human HDAC9; greater than 10000 nM on Human HDAC1; no more than 1000 nM at Recombinant human HDAC6; no more than 1000 nM at Human HDAC5; no more than 10000 nM on Human HDAC4; no more than 10000 nM on Human HDAC7.

For the molecule `COc1cc(N(Cc2ccc(-c3noc(C(F)(F)F)n3)s2)c2cnccn2)ncn1` [Example CH, 6-Methoxy-N-(pyrazin-2-yl)-N-({5-[5-(trifluoromethyl)-1,2,4-oxadiazol-3-yl]thiophen-2-yl}methyl)pyrimidin-4-amine], the IC50 at Human HDAC9 is no more than 10000 nM; at Human HDAC1 it was greater than 10000 nM; at Recombinant human HDAC6, no more than 10000 nM; at Human HDAC5 it was no more than 10000 nM; on Human HDAC4, no more than 10000 nM; at Human HDAC7, no more than 10000 nM.

Consider `CN(C)c1cc(N(Cc2ccc(-c3noc(C(F)(F)F)n3)s2)c2cnccn2)ncn1` [Example CI, N4,N4-Dimethyl-N6-(pyrazin-2-yl)-N6-({5-[5-(trifluoromethyl)-1,2,4-oxadiazol-3-yl]thiophen-2-yl}methyl)pyrimidine-4,6-diamine], for which the IC50 at Human HDAC9, on Human HDAC1, at Recombinant human HDAC6, on Human HDAC5, on Human HDAC4 and on Human HDAC7 was no more than 10000 nM in each case.

Consider `FC(F)(F)c1cc(N(Cc2ccc(-c3noc(C(F)(F)F)n3)s2)c2cnccn2)ncn1` [Example CJ, N-(Pyrazin-2-yl)-6-(trifluoromethyl)-N-({5-[5-(trifluoromethyl)-1,2,4-oxadiazol-3-yl]thiophen-2-yl}methyl)pyrimidin-4-amine], for which the IC50 on Human HDAC9 is no more than 10000 nM; on Human HDAC1, greater than 10000 nM; at Recombinant human HDAC6, no more than 10000 nM; at Human HDAC5 it was no more than 10000 nM; at Human HDAC4, no more than 10000 nM; on Human HDAC7, no more than 10000 nM.

On to `CS(=O)(=O)c1cc(N(Cc2ccc(-c3noc(C(F)(F)F)n3)s2)c2cnccn2)ncn1` [Example CK, 6-Methanesulfonyl-N-(pyrazin-2-yl)-N-({5-[5-(trifluoromethyl)-1,2,4-oxadiazol-3-yl]thiophen-2-yl}methyl)pyrimidin-4-amine], for which the IC50 at Human HDAC9 was no more than 10000 nM; at Human HDAC1, greater than 10000 nM; on Recombinant human HDAC6 it was no more than 10000 nM; at Human HDAC5, no more than 10000 nM; on Human HDAC4, no more than 1000 nM; at Human HDAC7 it was no more than 10000 nM.

Take `FC(F)(F)c1nc(-c2ccc(CN(c3cnccn3)c3cc(N4CCOCC4)ncn3)s2)no1` [Example CL, 6-(Morpholin-4-yl)-N-(pyrazin-2-yl)-N-({5-[5-(trifluoromethyl)-1,2,4-oxadiazol-3-yl]thiophen-2-yl}methyl)pyrimidin-4-amine]: the half-inhibitory concentration (IC50) at Human HDAC9 is no more than 10000 nM; on Human HDAC1, greater than 10000 nM; on Recombinant human HDAC6 it was no more than 10000 nM; on Human HDAC5, no more than 10000 nM; at Human HDAC4, no more than 10000 nM; on Human HDAC7 it was no more than 10000 nM.

Consider `Cn1ccc2c(N(Cc3ccc(-c4noc(C(F)(F)F)n4)s3)c3cnccn3)ncnc21` [Example CM, N-{7-Methyl-7H-pyrrolo[2,3-d]pyrimidin-4-yl}-N-({5-[5-(trifluoromethyl)-1,2,4-oxadiazol-3-yl]thiophen-2-yl}methyl)pyrazin-2-amine], for which the IC50 at Human HDAC9 is no more than 10000 nM; on Human HDAC1, greater than 10000 nM; on Recombinant human HDAC6 it was no more than 10000 nM; on Human HDAC5, no more than 10000 nM; on Human HDAC4 it was no more than 10000 nM; at Human HDAC7 it was no more than 10000 nM.

On to `COc1ccc2ncnc(N(Cc3ccc(-c4noc(C(F)(F)F)n4)s3)c3cnccn3)c2c1` [Example CN, 6-Methoxy-N-(pyrazin-2-yl)-N-({5-[5-(trifluoromethyl)-1,2,4-oxadiazol-3-yl]thiophen-2-yl}methyl)quinazolin-4-amine], for which the IC50 on Human HDAC9 is no more than 10000 nM; at Human HDAC1, greater than 10000 nM; at Recombinant human HDAC6, no more than 1000 nM; at Human HDAC5, no more than 1000 nM; at Human HDAC4 it was no more than 10000 nM; on Human HDAC7 it was no more than 10000 nM.

For `Cc1cncnc1N(Cc1ccc(-c2noc(C(F)(F)F)n2)s1)c1cnccn1` [Example CO, 5-Methyl-N-(pyrazin-2-yl)-N-({5-[5-(trifluoromethyl)-1,2,4-oxadiazol-3-yl]thiophen-2-yl}methyl)pyrimidin-4-amine], the IC50 on Human HDAC9 was no more than 10000 nM; on Human HDAC1, greater than 10000 nM; at Recombinant human HDAC6 it was no more than 1000 nM; on Human HDAC5 it was no more than 1000 nM; on Human HDAC4 it was no more than 500 nM; at Human HDAC7, no more than 1000 nM.

Regarding `COc1cncnc1N(Cc1ccc(-c2noc(C(F)(F)F)n2)s1)c1cnccn1` [Example CP, 5-Methoxy-N-(pyrazin-2-yl)-N-({5-[5-(trifluoromethyl)-1,2,4-oxadiazol-3-yl]thiophen-2-yl}methyl)pyrimidin-4-amine], the IC50 on Human HDAC9 is no more than 10000 nM; on Human HDAC1, greater than 10000 nM; at Recombinant human HDAC6, no more than 1000 nM; on Human HDAC5, no more than 10000 nM; on Human HDAC4, no more than 10000 nM; on Human HDAC7, no more than 10000 nM.
